Patent publication US20240366589A1, “NHE3-BINDING COMPOUNDS AND METHODS FOR INHIBITING PHOSPHATE TRANSPORT” (Ardelyx, Inc., priority 2013, published 2024)
Where “and” joins values, the source holds several entries; their conditions need not be identical. Equal entries are not always repeated.

What was measured:
[1] = molecular target: T1, Rat NHE3 (Rattus norvegicus, UniProt P26433); experiment: Cell-based NHE3 activity under prompt conditions (OK cells, BCECF pH recovery), rat NHE3; conditions: prompt conditions; for IC50: read-out: Prompt Rat NHE3 pIC50 (converted)
T1 construct: expressed in transfected cells; host or cells: Opossum kidney (OK) cells (ATCC), electroporation
Procedure, shortened: (§1)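 Read-out: initial rate of BCECF-reported intracellular pH recovery via Na+/H+ antiport, fitted to pIC50. Opossum kidney cells transfected with rat or human NHE3; NH4Cl prepulse with 5 μM BCECF-AM, 30 min RT; Na+-free choline buffer 10 min.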

[2] = tested on: absorption of sodium from the intestinal lumen; experiment: Inhibition of intestinal sodium absorption: urinary sodium (uNa) 16 h after single oral dose in rats; format: in vivo, rat; conditions: oral gavage, 16 h post-dose
Procedure, shortened: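 Urinary sodium mass over the 16 h after one oral gavage dose, measured by cation-exchange ion chromatography, reported as percent of water-vehicle group; ANOVA plus Dunnett's post hoc test. Groups of six 8-week-old Sprague-Dawley rats, housed individually in metabolic cages post-dose, fed and watered freely.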

[3] = tested on: absorption of sodium from the intestinal lumen; experiment: Fecal form score (FFS) 16 h after oral dose in rats; format: in vivo, rat; conditions: oral gavage, 16 h post-dose, scale 1-5
Procedure, shortened: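 Fecal form was scored at 16 h post-dose on a 1–5 wetness scale (normal pellet to liquid stream), with two independent observations averaged across six rats per group. Animals were 8-week-old Sprague-Dawley rats given test compound or water orally in the late afternoon and kept in metabolic cages.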

[4] = molecular target: T2, Human NHE3 (Homo sapiens, UniProt P48764); experiment: Cell-based NHE3 activity under prompt conditions (OK cells, BCECF pH recovery), human NHE3; conditions: prompt conditions; for IC50: read-out: Prompt Human NHE3 pIC50 (converted)
T2 construct: expressed in transfected cells; host or cells: Opossum kidney (OK) cells (ATCC), electroporation
T2 sequence (P48764 26-834): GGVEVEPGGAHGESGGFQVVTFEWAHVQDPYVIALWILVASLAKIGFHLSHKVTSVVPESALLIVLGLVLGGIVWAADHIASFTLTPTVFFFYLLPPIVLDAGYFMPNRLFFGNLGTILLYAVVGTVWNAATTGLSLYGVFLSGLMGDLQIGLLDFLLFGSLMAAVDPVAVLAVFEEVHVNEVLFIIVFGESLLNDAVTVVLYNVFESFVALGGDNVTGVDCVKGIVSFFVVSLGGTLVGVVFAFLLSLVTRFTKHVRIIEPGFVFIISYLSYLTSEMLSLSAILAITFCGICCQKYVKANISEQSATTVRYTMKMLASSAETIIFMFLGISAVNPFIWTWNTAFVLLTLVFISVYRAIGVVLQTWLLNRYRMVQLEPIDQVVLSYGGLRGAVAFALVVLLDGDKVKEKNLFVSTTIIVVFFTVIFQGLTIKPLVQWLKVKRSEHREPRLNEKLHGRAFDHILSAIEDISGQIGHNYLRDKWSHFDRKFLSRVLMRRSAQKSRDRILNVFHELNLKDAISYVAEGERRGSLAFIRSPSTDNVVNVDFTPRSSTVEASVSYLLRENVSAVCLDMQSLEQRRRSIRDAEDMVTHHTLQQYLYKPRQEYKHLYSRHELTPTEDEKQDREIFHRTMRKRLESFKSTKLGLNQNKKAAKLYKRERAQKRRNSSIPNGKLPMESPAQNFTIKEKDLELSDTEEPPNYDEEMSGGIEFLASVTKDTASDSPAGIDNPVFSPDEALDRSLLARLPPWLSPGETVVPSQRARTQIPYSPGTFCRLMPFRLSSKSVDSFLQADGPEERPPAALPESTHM
Procedure, shortened: as §1

[5] = tested on: phosphorus and calcium levels in the urine of rats; experiment: Urinary excretion of phosphate and calcium in rats (16 h overnight urine); format: in vivo, rat; conditions: rats, oral gavage, 16 h post-dose

T1 sequence (P26433 29-831): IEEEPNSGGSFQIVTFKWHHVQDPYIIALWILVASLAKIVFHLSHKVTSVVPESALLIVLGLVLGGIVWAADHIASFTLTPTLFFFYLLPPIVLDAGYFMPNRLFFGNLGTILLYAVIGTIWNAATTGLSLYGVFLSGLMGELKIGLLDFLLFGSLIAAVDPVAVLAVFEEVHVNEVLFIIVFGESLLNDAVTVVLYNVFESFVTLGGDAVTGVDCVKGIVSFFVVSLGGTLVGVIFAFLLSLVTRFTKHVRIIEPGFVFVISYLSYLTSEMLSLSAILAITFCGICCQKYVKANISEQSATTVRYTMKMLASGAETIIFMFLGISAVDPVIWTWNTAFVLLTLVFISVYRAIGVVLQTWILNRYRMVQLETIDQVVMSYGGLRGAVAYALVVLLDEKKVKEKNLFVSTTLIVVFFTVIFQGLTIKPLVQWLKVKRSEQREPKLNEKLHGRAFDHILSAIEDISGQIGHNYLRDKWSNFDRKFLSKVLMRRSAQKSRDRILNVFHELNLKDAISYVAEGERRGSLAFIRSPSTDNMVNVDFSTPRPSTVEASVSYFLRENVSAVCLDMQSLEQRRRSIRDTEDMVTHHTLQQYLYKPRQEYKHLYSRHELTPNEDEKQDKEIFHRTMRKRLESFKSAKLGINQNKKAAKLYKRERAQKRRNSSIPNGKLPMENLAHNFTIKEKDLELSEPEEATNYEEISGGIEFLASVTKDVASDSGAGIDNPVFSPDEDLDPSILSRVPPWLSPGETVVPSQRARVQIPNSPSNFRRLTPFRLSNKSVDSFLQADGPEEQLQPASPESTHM

Structure (SMILES) | Prompt Rat NHE3 pIC50 [1] | Prompt Human NHE3 pIC50 [4] | Urine Na % of control ([2]; dose 3 mg/kg) [%] | Fecal Form Score average ([3]; dose 3 mg/kg) | Urine P % of control ([5]; dose 3 mg/kg) [%] | Urine Na % of control ([2]; dose 10 mg/kg) [%] | Fecal Form Score average ([3]; dose 10 mg/kg) | Urine P % of control ([5]; dose 10 mg/kg) [%] | other results
CN1Cc2c(Cl)cc(Cl)cc2[C@H](c2cccc(S(=O)(=O)NCCOCCOCCNC(=O)CCC(CCC(=O)NCCOCCOCCNS(=O)(=O)c3cccc([C@@H]4CN(C)Cc5c(Cl)cc(Cl)cc54)c3)(CCC(=O)NCCOCCOCCNS(=O)(=O)c3cccc([C@@H]4CN(C)Cc5c(Cl)cc(Cl)cc54)c3)NC(=O)NCC(=O)O)c2)C1 [compound 164] | 7.53 | 8.13 | 18 | 3 | 63 | – | – | – | –
CN1Cc2c(Cl)cc(Cl)cc2[C@H](c2cccc(S(=O)(=O)NCCOCCOCCNC(=O)CCC(CCC(=O)NCCOCCOCCNS(=O)(=O)c3cccc([C@@H]4CN(C)Cc5c(Cl)cc(Cl)cc54)c3)(CCC(=O)NCCOCCOCCNS(=O)(=O)c3cccc([C@@H]4CN(C)Cc5c(Cl)cc(Cl)cc54)c3)NC(=O)NC(CO)CO)c2)C1 [compound 178] | 7.10 | 7.33 | 18 | 3 | 46 | – | – | – | –
CN1Cc2c(Cl)cc(Cl)cc2[C@H](c2cccc(S(=O)(=O)NCCOCCOCCNC(=O)NCCCC(CCCNC(=O)NCCOCCOCCNS(=O)(=O)c3cccc([C@@H]4CN(C)Cc5c(Cl)cc(Cl)cc54)c3)(CCCNC(=O)NCCOCCOCCNS(=O)(=O)c3cccc([C@@H]4CN(C)Cc5c(Cl)cc(Cl)cc54)c3)NC(=O)CCC(=O)O)c2)C1 [compound 155] | 7.70 | 7.90 | 40 | 2 | 44 | – | – | – | –
CC1Cc2c(Cl)cc(Cl)cc2[C@H](c2cccc(S(=O)(=O)NCCOCCOCCNC(=O)CCC(CCC(=O)NCCOCCOCCNS(=O)(=O)c3cccc([C@@H]4CN(C)Cc5c(Cl)cc(Cl)cc54)c3)(CCC(=O)NCCOCCOCCNS(=O)(=O)c3cccc([C@@H]4CN(C)Cc5c(Cl)cc(Cl)cc54)c3)NC(=O)N[C@@H](CC(=O)O)C(=O)O)c2)C1 (stereo partly drawn) [compound 145] | – | – | 41 | 3 | 51 | – | – | – | IC50 [1]: 25.1 nM; IC50 [4]: 20 nM
O=C(NCCCCNC(=O)NCCOCCOCCNS(=O)(=O)c1ccc(O[C@H]2c3ccccc3C[C@@H]2N2CCCCC2)cc1)NCCOCCOCCNS(=O)(=O)c1ccc(O[C@H]2c3ccccc3C[C@@H]2N2CCCCC2)cc1 (racemic) [compound 47] | – | – | – | – | – | 73 | 1 | 51 | IC50 [1]: 50.1 nM; IC50 [4]: 15.8 nM
CN1Cc2c(Cl)cc(Cl)cc2[C@H](c2cccc(S(=O)(=O)NCCOCCOCCOCCNC(=O)CC(CC(=O)NCCOCCOCCOCCNS(=O)(=O)c3cccc([C@@H]4CN(C)Cc5c(Cl)cc(Cl)cc54)c3)C(=O)NCCOCCOCCOCCNS(=O)(=O)c3cccc([C@@H]4CN(C)Cc5c(Cl)cc(Cl)cc54)c3)c2)C1 [compound 84] | 7.50 | 7.70 | – | – | – | – | – | – | Urine Na % of control ([2]; dose 8 mg/kg): 7%; Fecal Form Score average ([3]; dose 8 mg/kg): 3; Urine P % of control ([5]; dose 8 mg/kg): 47%
CN1Cc2c(Cl)cc(Cl)cc2[C@H](c2cccc(S(=O)(=O)NCCOCCOCCNC(=O)NCCCC(CCCNC(=O)NCCOCCOCCNS(=O)(=O)c3cccc([C@@H]4CN(C)Cc5c(Cl)cc(Cl)cc54)c3)(CCCNC(=O)NCCOCCOCCNS(=O)(=O)c3cccc([C@@H]4CN(C)Cc5c(Cl)cc(Cl)cc54)c3)NC(=O)COCC(=O)O)c2)C1 [compound 161] | 9.20 | 7.60 | 82 | 2 | 60 | – | – | – | –
CN1Cc2c(Cl)cc(Cl)cc2[C@H](c2cccc(S(=O)(=O)NCCOCCOCCNC(=O)CCC(CCC(=O)NCCOCCOCCNS(=O)(=O)c3cccc([C@@H]4CN(C)Cc5c(Cl)cc(Cl)cc54)c3)(CCC(=O)NCCOCCOCCNS(=O)(=O)c3cccc([C@@H]4CN(C)Cc5c(Cl)cc(Cl)cc54)c3)NS(C)(=O)=O)c2)C1 [compound 122] | 6.20 | 6.80 | 30 | 2 | 87 | – | – | – | –
CN1Cc2c(Cl)cc(Cl)cc2[C@H](c2cccc(S(=O)(=O)NCCOCCOCCOCCNC(=O)CCN(CCC(=O)NCCOCCOCCOCCNS(=O)(=O)c3cccc([C@@H]4CN(C)Cc5c(Cl)cc(Cl)cc54)c3)CCC(=O)NCCOCCOCCOCCNS(=O)(=O)c3cccc([C@@H]4CN(C)Cc5c(Cl)cc(Cl)cc54)c3)c2)C1 [compound 79] | – | 7.20 | 44 | 2 | 81 | 17 | 3 | 33 | IC50 [1]: 316 nM; Urine Na % of control ([2]; dose 1 mg/kg): 65%; Fecal Form Score average ([3]; dose 1 mg/kg): 1; Urine P % of control ([5]; dose 1 mg/kg): 109%

Continued, in another order:

Prompt Rat NHE3 pIC50 [1] | Prompt Human NHE3 pIC50 [4] | Structure (SMILES) | Urine Na % of control ([2]; dose 3 mg/kg) [%] | Fecal Form Score average ([3]; dose 3 mg/kg) | Urine P % of control ([5]; dose 3 mg/kg) [%] | Urine Na % of control ([2]; dose 10 mg/kg) [%] | Fecal Form Score average ([3]; dose 10 mg/kg) | Urine P % of control ([5]; dose 10 mg/kg) [%] | other results
7.25 and 6.90 | 7.35 and 6.90 | NCCOCCOCCOCCN1CCN(c2ccc(-c3nc(N=C(N)N)nc4ccc(Cl)cc34)cc2)CC1 [compound 18] | – | – | – | 74 | 1 | 142 | Urine Na % of control ([2]; dose 30 mg/kg): 41%; Fecal Form Score average ([3]; dose 30 mg/kg): 1; Urine P % of control ([5]; dose 30 mg/kg): 109%
6.85 | 6.60 | CN1Cc2c(Cl)cc(Cl)cc2[C@H](c2cccc(S(=O)(=O)NCCOCCOCCOCCNC(=O)COCC(=O)NCCOCCOCCOc3cccc(-c4nc(NC(=N)N)nc5ccc(Cl)cc45)c3)c2)C1 [compound 25] | – | – | – | 87 | 1 | 150 | –
7.40 | 8.45 | N[C@@H]1CCCN([C@H]2Cc3c(Cl)cc(Cl)cc3[C@@H]2Oc2ccc(S(=O)(=O)NCCOCCOCCNC(=O)NCCCCNC(=O)NCCOCCOCCNS(=O)(=O)c3ccc(O[C@H]4c5cc(Cl)cc(Cl)c5C[C@@H]4N4CCC[C@@H](N)C4)cc3)cc2)C1 [compound 135] | 94 | 1 | 44 | 58 | 2 | 85 | Urine Na % of control ([2]; dose 1 mg/kg): 100%; Fecal Form Score average ([3]; dose 1 mg/kg): 1; Urine P % of control ([5]; dose 1 mg/kg): 92%
6.50 | 7.10 | C/C(=C\c1cc(F)c(Oc2ccc(S(=O)(=O)NCCOCCOCCOCCNC(=O)CN(C)CC(=O)NCCOCCOCCOCCNS(=O)(=O)c3ccc(Oc4c(F)cc(/C=C(\C)C(=O)N=C(N)N)cc4F)cc3)cc2)c(F)c1)C(=O)N=C(N)N [compound 9] | – | – | – | 56 | 1 | 77 | –
7.60 | 8.00 | N=C(N)Nc1nc(-c2ccc(OCCOCCOCCOCCNC(=O)NCCOCCOCCNC(=O)NCCCCNC(=O)NCCOCCOCCNC(=O)NCCOCCOCCOCCOc3ccc(-c4nc(NC(=N)N)nc5ccc(Cl)cc45)cc3)cc2)c2cc(Cl)ccc2n1 [compound 36] | – | – | – | 85 | 1 | 86 | –
<5.00 | 7.25 | NCCOCCOCCNS(=O)(=O)c1ccc(O[C@H]2c3cc(Cl)cc(Cl)c3C[C@@H]2N2CCCCC2)cc1 [compound 62] | – | – | – | 121 | 1 | 77 | –
